We go through eleven molecules from patent US12180226B2, “Spirotricycle RIPK1 inhibitors and methods of uses thereof” (Merck Sharp & Dohme LLC, priority 2021, dated 2024).

As usually defined, the EC50 is the concentration giving half of the maximal effect.

The assay addresses RIPK1 (recombinant GST-RIPK1 kinase domain, residues 1-327) (Homo sapiens (Human), UniProt Q13546). Kind of assay: RIPK1-ADP-Glo Enzymatic Assay. The assay is classed as biochemical. Conditions: ADP-Glo; 25 nM GST-RIPK1, 300 μM ATP; assay lower limit ~25 nM; read-out: RIPK1 V0 Ec50. The essentials:
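GST-tagged kinase domain (residues 1-327, Sf21-expressed), 25 nM, pre-incubated 30 min with compound at ambient temperature, then reacted 150 min with 300 μM ATP and 3 μM dephosphorylated MBP in HEPES pH 7.3 buffer. ADP measured by ADP-Glo luminescence; EC50 from ten-point titration (top 100000 nM), four-parameter fit.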

Sequence of RIPK1 (recombinant GST-RIPK1 kinase domain, residues 1-327) (Q13546 1-327): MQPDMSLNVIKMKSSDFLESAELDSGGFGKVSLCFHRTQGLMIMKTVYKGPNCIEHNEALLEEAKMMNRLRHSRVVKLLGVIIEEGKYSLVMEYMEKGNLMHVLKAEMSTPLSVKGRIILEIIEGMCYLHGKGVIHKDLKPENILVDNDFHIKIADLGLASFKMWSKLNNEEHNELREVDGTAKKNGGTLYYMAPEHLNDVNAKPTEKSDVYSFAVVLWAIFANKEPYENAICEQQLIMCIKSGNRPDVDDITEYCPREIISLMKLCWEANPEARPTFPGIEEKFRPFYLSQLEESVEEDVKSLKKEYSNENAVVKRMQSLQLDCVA

Turning to `CC1CN(c2cc(C#N)ncn2)CCC12O[C@@H]1CC[C@@H](c3ccccc3)N1C2=O` (stereo partly drawn) [Example 4.234, 6-[(4R,5′S,7a′R)-3-methyl-3′-oxo-5′-phenyltetrahydro-1H,3′H-spiro[piperidine-4,2′-pyrrolo[2,1-b] [1,3]oxazol]-1-yl]pyrimidine-4-carbonitrile], the half-maximal effective concentration (EC50) worked out at 56.5 nM.

In the case of `COc1cc(F)cc([C@@H]2CC[C@H]3OC4(CCN(C(=O)c5ccccc5)CC4)C(=O)N32)c1` [Example 17.9, (5′S,7a′R)-1-benzoyl-5′-(3-fluoro-5-methoxyphenyl)tetrahydro-3′H-spiro[piperidine-4,2′-pyrrolo[2,1-b]oxazol]-3′-one], the half-maximal effective concentration (EC50) was found to be 40.7 nM.

For the molecule `CC(C)c1oncc1C(=O)N1CCC2(CC1)O[C@@H]1CC[C@@H](c3cc(F)cc(F)c3)N1C2=O` [Example 6.49, (5′S,7a′R)-5′-(3,5-difluorophenyl)-1-[5-(propan-2-yl)-1,2-oxazole-4-carbonyl]-tetrahydro-3′H-spiro [piperidine-4,2′-pyrrolo[2,1-b][1,3]-oxazol]-3′-one], the EC50 came to 989 nM.

In the case of `O=C1N2[C@@H](CC[C@H]2c2ccccc2)OC12CCN(c1ncc(-c3ncco3)cn1)CC2` [Example 21.15, (5′S,7a′R)-1-[5-(1,3-oxazol-2-yl)pyrimidin-2-yl]-5′-phenyltetrahydro-3′H-spiro[piperidine-4,2′-pyrrolo[2,1-b][1,3]oxazol]-3′-one], the half-maximal effective concentration (EC50) is less than 25 nM.

Take `O=C(c1ccc2c(c1)CCO2)N1CCC2(CC1)O[C@@H]1CC[C@@H](c3cc(F)cc(F)c3)N1C2=O` [Example 6.75, (5′S,7a′R)-5′-(3,5-difluorophenyl)-1-(2,3-dihydro-1-benzo-furan-5-carbonyl)-tetrahydro-3′H-spiro [piperidine-4,2′-pyrrolo[2,1-b][1,3]-oxazol]-3′-one]: the EC50 amounted to 24.7 nM.

Consider `CC1CN(c2ncnc3ccnn23)CCC12O[C@@H]1CC[C@@H](c3cc(F)cc(F)c3)N1C2=O` (stereo partly drawn) [Example 4.264, (5′S,7a′R)-5′-(3,5-difluorophenyl)-3-methyl-1-(pyrazolo[1,5-a] [1,3,5]triazin-4-yl)tetrahydro-3′H-spiro[piperidine-4,2′-pyrrolo[2,1-b] [1,3]oxazol]-3′-one], for which the concentration for a half-maximal effect (EC50) is less than 25 nM.

For the molecule `O=C(c1nccs1)N1CCC2(CC1)O[C@@H]1CC[C@@H](c3cc(F)cc(F)c3)N1C2=O` [Example 5.35, (5′S,7a′R)-5′-(3,5-difluoro-phenyl)-1-(thiazole-2-carbonyl)tetrahydro-3′H-spiro[piperidine-4,2′-pyrrolo[2,1-b]oxazol]-3′-one], the EC50 amounted to 25 nM.

For the molecule `O=C1N2C(=NC13CCN(c1ccnc4c(F)cnn14)CC3)CC[C@H]2c1cc(F)cc(F)c1` [Example 4.79, (S)-5′-(3,5-difluorophenyl)-1-(3-fluoropyrazolo[1,5-a]pyrimidin-7-yl)-6′,7′-dihydro-3′H,5′H-spiro[piperidine-4,2′-pyrrolo[1,2-a]imidazol]-3′-one], the half-maximal effective concentration (EC50) is less than 25 nM.

As to `O=C1N2[C@@H](CC[C@H]2c2cccc(F)c2)OC12CCN(c1cc(-c3ccccc3)ncn1)CC2` [Example 4.125, (5′S,7a′R)-5′-(3-fluorophenyl)-1-(6-phenylpyrimidin-4-yl)tetrahydro-3′H-spiro[piperidine-4,2′-pyrrolo[2,1-b] [1,3]oxazol]-3′-one], the EC50 was less than 25 nM.

As for `O=C(c1c(F)cccc1F)N1CCC2(CC1)O[C@@H]1CC[C@@H](c3cc(F)cc(F)c3)N1C2=O` [Example 5.56, (5′S,7a′R)-1-(2,6-difluoro-benzoyl)-5′-(3,5-difluoro-phenyl)tetrahydro-3′H-spiro[piperidine-4,2′-pyrrolo[2,1-b]oxazol]-3'-one], the EC50 was less than 25 nM.

Turning to `N#Cc1cc(N2CC3(C2)O[C@@H]2CC[C@@H](c4cc(F)cc(F)c4)N2C3=O)ncn1` [Example 4.118, 6-((5′S,7a′R)-5′-(3,5-difluorophenyl)-3′-oxotetrahydro-3′H-spiro[azetidine-3,2′-pyrrolo[2,1-b]oxazol]-1-yl)pyrimidine-4-carbonitrile], the concentration for a half-maximal effect (EC50) turned out to be 228 nM.
